Assay results from US20240206469A1, “PHOSPHORUS USE EFFICIENCY ENHANCERS AS PLANT GROWTH PROMOTORS” (EUROCHEM ANTWERPEN, priority 2021, published 2024).

Tests used:
[1] = system: Maize; assay: Sand-based maize pot experiment; type: in vivo, maize cultivar B104; conditions: low phosphate
Method: All Arabidopsis plant experiments were performed using the Arabidopsis thaliana Columbia-0 background. The Arabidopsis pSPX1::GUS line is described in the Plant Journal 2008, 54: 965-975. For rice, the cultivar Nipponbare was used. For maize, the cultivars DKC 2931 and B104 were used for regular pot experiments and sand-based pot experiments, respectively. For soybean, the cultivar Primus was used. […] The medium was solidified due to the addition of 0.6% Gelrite, unless stated otherwise. In case of vertical plates (root length and root hair measurements), the medium was supplied with 0.5% of sucrose and 1 μM (low phosphate, 1 μM KH2PO4, 9.9 mM KCl), 10 μM (low phosphate 10 μM KH2PO4, 9.9 mM KCl) or 1.25 mM KH2PO4 (high phosphate). Arabidopsis seeds were stratified for 2 days at 4° C. before germination. Seedlings were germinated in climate-controlled growth chambers at 22° C. under continuous light (100 μmol m^−2 s^−1). Husked rice seeds were germinated on wetted Whatman paper for 2 days at 37° C. and then transferred to Sterivent boxes or square Petri dishes with solid medium. Maize and soybean seeds were wetted 24 hours at room temperature prior to sowing in pots.
Regular Arabidopsis, soybean and maize pot experiments used an unfertilized potting soil, which was supplemented at the start of the experiment with 50 ml H2O containing 0.25 g/l NH4NO3 and 0.44 g/l (high phosphate) or no (maize and soybean) or 0.11 g/l KH2PO (Arabidopsis) for low phosphate conditions. For the sand-based maize pot experiment, sand was supplemented with 50 ml H2O containing 0.25 g/l NH4NO3 and 0.38 g/l (high phosphate) or 0.02 g/l (low phosphate) KH2PO4. Potassium was balanced via addition of KCl. Compound concentration was 10 μM, calculated based on the total water content after watering, and was added at the start of the experiment (Arabidopsis) or once a week (maize). Indexed chlorophyll contents were received via a SPAD 502 Plus Chlorophyll Meter. All parameters in the sand experiment, except the rate of leaf 4 (measured the first 4 days after emergence), were measured 19 days after sowing. Measurements in the pot experiments with potting soil were done after 4 weeks of growth, except for leaf 5, which was measured at 26 days. One long-term maize pot experiment was conducted with the DKC 2931 (2.5 months) and B104 (3 months) cultivars on the PHENOVISION phenotyping platform as described in Frontiers in Plant Science 2021, 12: 640914, except that an unfertilized potting soil was used and that plants were fertilized with a low-phosphate Hoagland solution. The 2.5× overconcentrated low-phosphate Hoagland solution contained 0.034 g/l KH2PO and 200 mL of this solution was applied twice a week. […]

[2] = system: Maize DKC2931; assay: Long-term maize pot experiment, DKC2931 (PHENOVISION); type: in vivo, maize cultivar DKC 2931
Method: Regular Arabidopsis, soybean and maize pot experiments used an unfertilized potting soil, which was supplemented at the start of the experiment with 50 ml H2O containing 0.25 g/l NH4NO3 and 0.44 g/l (high phosphate) or no (maize and soybean) or 0.11 g/l KH2PO (Arabidopsis) for low phosphate conditions. For the sand-based maize pot experiment, sand was supplemented with 50 ml H2O containing 0.25 g/l NH4NO3 and 0.38 g/l (high phosphate) or 0.02 g/l (low phosphate) KH2PO4. Potassium was balanced via addition of KCl. Compound concentration was 10 μM, calculated based on the total water content after watering, and was added at the start of the experiment (Arabidopsis) or once a week (maize). Indexed chlorophyll contents were received via a SPAD 502 Plus Chlorophyll Meter. All parameters in the sand experiment, except the rate of leaf 4 (measured the first 4 days after emergence), were measured 19 days after sowing. Measurements in the pot experiments with potting soil were done after 4 weeks of growth, except for leaf 5, which was measured at 26 days. One long-term maize pot experiment was conducted with the DKC 2931 (2.5 months) and B104 (3 months) cultivars on the PHENOVISION phenotyping platform as described in Frontiers in Plant Science 2021, 12: 640914, except that an unfertilized potting soil was used and that plants were fertilized with a low-phosphate Hoagland solution. The 2.5× overconcentrated low-phosphate Hoagland solution contained 0.034 g/l KH2PO and 200 mL of this solution was applied twice a week. 1.4 mL of a 10 mM compound solution was added each two weeks to each pot, corresponding to 9.6 mg/g nutrients. 13 plants per condition were used. During the experiment, pictures were taken twice a week for each plants from 6 different angles and the top. Pictures were used to extract the plant height and to extract the projected plant area from each side and calculate an estimated plant volume over time.

[3] = system: Rice; assay: Rice box experiment; type: in vivo, rice cultivar Nipponbare; conditions: low phosphate 0.025 mM, 10 μM, 13 days after germination, control 1.1
Method: All Arabidopsis plant experiments were performed using the Arabidopsis thaliana Columbia-0 background. The Arabidopsis pSPX1::GUS line is described in the Plant Journal 2008, 54: 965-975. For rice, the cultivar Nipponbare was used. For maize, the cultivars DKC 2931 and B104 were used for regular pot experiments and sand-based pot experiments, respectively. For soybean, the cultivar Primus was used. […] The medium was solidified due to the addition of 0.6% Gelrite, unless stated otherwise. […]
Arabidopsis primary root growth experiments were done on MS1/2 on vertical standing plates and roots were measured 11 days after germination. Roots were imaged using a flatbed scanner (EPSON Expression 11000XL) and root length was measured using ImageJ software. Arabidopsis shoot biomass was determined in 11 days after germination and growth on vertical standing plates with modMS. Arabidopsis leaf area was measured 21 days after germination on horizontal plates with modMS medium. Plates were scanned from the top using a flatbed scanner (EPSON Expression 11000XL) and the visible leaf area was measured using ImageJ software. […] Plant height was measured 11 days after germination. […] Plant height was measured 13 days after germination. […]

## CC1CN(CC(=O)c2c(N)n(C)c(=O)n(C)c2=O)c2ccccc2O1 (stereo not shown) [Compound 8, 6-amino-1,3-dimethyl-5-[2-(2-methyl-2,3-dihydro-1,4-benzoxazin-4-yl)acetyl]pyrimidine-2,4-dione]
[1]; 10 μM once a week, 19 days after sowing, control 21
  Plant height: 28 cm
[1]; 19 days after sowing, SPAD, control 28
  Indexed chlorophyll content: 32
[1]; 19 days after sowing, control 2
  Crown root number: 7
[1]; first 4 days after emergence, control 2.04
  Growth rate of leaf 4: 2.46 cm/day
[2]; DKC2931, day 15, control 288
  Plant height: 297 mm
[2]; DKC2931, day 15, control 361
  Estimated volume: 393 cm^3
[2]; DKC2931, day 19, control 352
  Plant height: 368 mm
[2]; DKC2931, day 19, control 576
  Estimated volume: 763 cm^3
[2]; DKC2931, day 22, control 335
  Plant height: 372 mm
[2]; DKC2931, day 22, control 843
  Estimated volume: 1104 cm^3
[2]; DKC2931, day 26, control 378
  Plant height: 452 mm
[2]; DKC2931, day 26, control 1145
  Estimated volume: 1646 cm^3
[2]; DKC2931, day 27, control 352
  Plant height: 460 mm
[2]; DKC2931, day 27, control 1086
  Estimated volume: 1826 cm^3
[2]; DKC2931, day 29, control 399
  Plant height: 471 mm
[2]; DKC2931, day 29, control 1581
  Estimated volume: 2187 cm^3
[2]; DKC2931, day 33, control 424
  Plant height: 553 mm
[2]; DKC2931, day 33, control 2272
  Estimated volume: 3213 cm^3
[2]; DKC2931, day 36, control 531
  Plant height: 634 mm
[2]; DKC2931, day 36, control 2854
  Estimated volume: 3881 cm^3
[2]; DKC2931, day 40, control 578
  Plant height: 694 mm
[2]; DKC2931, day 40, control 3872
  Estimated volume: 5092 cm^3
[2]; DKC2931, day 43, control 655
  Plant height: 756 mm
[2]; DKC2931, day 43, control 4240
  Estimated volume: 5538 cm^3
[2]; DKC2931, day 47, control 732
  Plant height: 799 mm
[2]; DKC2931, day 47, control 4988
  Estimated volume: 6770 cm^3
[2]; DKC2931, day 50, control 777
  Plant height: 844 mm
[2]; DKC2931, day 50, control 5718
  Estimated volume: 7419 cm^3
[2]; DKC2931, day 54, control 562
  Plant height: 652 mm
[2]; DKC2931, day 54, control 6325
  Estimated volume: 8086 cm^3
[2]; DKC2931, day 57, control 678
  Plant height: 894 mm
[2]; DKC2931, day 57, control 6295
  Estimated volume: 7681 cm^3
[2]; DKC2931, day 61, control 893
  Plant height: 1021 mm
[2]; DKC2931, day 61, control 6047
  Estimated volume: 7458 cm^3
[2]; DKC2931, day 63, control 811
  Plant height: 880 mm
[2]; DKC2931, day 63, control 5546
  Estimated volume: 6642 cm^3
[2]; DKC2931, day 68, control 849
  Plant height: 895 mm
[2]; DKC2931, day 68, control 4292
  Estimated volume: 4967 cm^3
[2]; DKC2931, day 71, control 856
  Plant height: 916 mm
[2]; DKC2931, day 71, control 4022
  Estimated volume: 4807 cm^3
[2]; DKC2931, day 75, control 798
  Plant height: 903 mm
[2]; DKC2931, day 75, control 3778
  Estimated volume: 4587 cm^3
[2]; Maize pot long term DKC2931, 2.5 months, low phosphate, control 1
  Average number of ears: 1
[2]; Maize pot long term DKC2931, low phosphate, control 27
  Shoot weight: 33 g
[2]; Maize pot long term DKC2931, low phosphate, control 53
  Leaf 6: 58 cm
[3]
  Plant height: 3.1 cm
